In ChEMBL document CHEMBL5360634, “Turonicin A, an Antifungal Linear Polyene Polyketide from an Australian Streptomyces sp” (J Nat Prod, 2023):
In brackets after ≈: the same amount, converted by molar mass.

Tests used:
Saccharomyces cerevisiae = assay: Antifungal activity against Saccharomyces cerevisiae assessed as reduction in fungal growth measured after 48 hrs by resazurin staining based analysis; type: functional
Candida albicans = assay: Antifungal activity against Candida albicans ATCC 10231 assessed as reduction in fungal growth measured after 48 hrs by resazurin staining based analysis; type: functional
Staphylococcus aureus = assay: Antibacterial activity against Staphylococcus aureus assessed as inhibition of bacterial growth measured after 48 hrs by resazurin staining based analysis; type: functional
Tritrichomonas foetus = assay: Antiprotozoal activity against Tritrichomonas foetus KV-1 strain assessed as inhibition of protozoal growth measured after 72 hrs under anaerobic conditions; type: functional, organism-based; details: KV-1, 72 h
[1] = Cytotoxicity against human NFF cells assessed as inhibition of cell growth measured after 48 hrs by resazurin staining based analysis; type: toxicity
Bacillus subtilis = assay: Antibacterial activity against Bacillus subtilis ATCC 6633 assessed as inhibition of bacterial growth measured after 48 hrs by resazurin staining based analysis; type: functional
[2] = Antiproliferative activity against mouse NS-1 cells assessed as inhibition of cell growth measured after 48 hrs by resazurin staining based analysis; type: functional; details: NS1, 48 h

SMILES	MIC (Saccharomyces cerevisiae) [µg/mL]	MIC (Candida albicans) [µg/mL]	MIC (Staphylococcus aureus) [µg/mL]	IC50 (Tritrichomonas foetus) [µM]	IC50 at 48 h [1] [µM]	MIC (Bacillus subtilis) [µg/mL]	IC50 [2] [µM]
Clc1ccccc1C(c1ccccc1)(c1ccccc1)n1ccnc1 [CLOTRIMAZOLE]	0.4 (≈ 1.16 µM)	0.1 (≈ 0.29 µM)	–	–	–	–	–
C\C(=C/C=C/C=C/C=C/CC/C=C/[C@H](C)[C@H](O)[C@@H](C)[C@H](O)/C=C/C=C/C=C/C=C/C=C/C[C@H](O)[C@H](C)C(=O)C[C@H](O)C[C@H](O)C[C@H](O)/C=C/C[C@@H](O)C[C@H](O)C[C@@H](O)C[C@H](O)/C=C/C[C@H](O)/C=C/C[C@H](O)CCCNC(=N)N)C(=O)O	0.0008 (≈ 0.000703 µM)	0.0031 (≈ 0.00272 µM)	0.39 (≈ 0.343 µM)	> 80	> 80	0.097 (≈ 0.0852 µM)	44
C\C(=C/C=C/C=C/C=C/C=C/CC/C=C/[C@H](C)[C@H](O)[C@@H](C)[C@H](O)/C=C/C=C/C=C/C=C/C=C/C[C@H](O)[C@H](C)C(=O)C[C@H](O)C[C@H](O)C[C@H](O)/C=C/C[C@@H](O)C[C@H](O)C[C@@H](O)C[C@H](O)/C=C/C[C@H](O)/C=C/C[C@H](O)C[C@H](O)CCCN)C(=O)O	0.0002 (≈ 0.000171 µM)	0.0008 (≈ 0.000686 µM)	1.5 (≈ 1.29 µM)	> 80	> 80	0.097 (≈ 0.0832 µM)	> 80
Cc1ncc([N+](=O)[O-])n1CCO [METRONIDAZOLE]	–	–	–	0.9	–	–	–
CN[C@H](CC(C)C)C(=O)N[C@H]1C(=O)N[C@@H](CC(N)=O)C(=O)N[C@H]2C(=O)N[C@H]3C(=O)N[C@H](C(=O)N[C@H](C(=O)O)c4cc(O)cc(O)c4-c4cc3ccc4O)[C@H](O)c3ccc(c(Cl)c3)Oc3cc2cc(c3O[C@@H]2O[C@H](CO)[C@@H](O)[C@H](O)[C@H]2O[C@H]2C[C@](C)(N)[C@H](O)[C@H](C)O2)Oc2ccc(cc2Cl)[C@H]1O [VANCOMYCIN]	–	–	0.8 (≈ 0.552 µM)	–	–	0.05 (≈ 0.0345 µM)	–
CSC[S@+]([O-])C[C@H](CO)NC(=O)/C=C/c1c(C)[nH]c(=O)[nH]c1=O	–	–	–	–	1.2	–	0.4
C\C(=C/C=C/C=C/C=C/CC/C=C/[C@H](C)[C@H](O)[C@@H](C)[C@H](O)/C=C/C=C/C=C/C=C/C=C/C[C@H](O)[C@H](C)C(=O)C[C@H](O)C[C@H](O)C[C@H](O)/C=C/C[C@@H](O)C[C@H](O)C[C@@H](O)C[C@H](O)/C=C/C[C@H](O)/C=C/C[C@H](O)C[C@H](O)CCCN)C(=O)O	0.0004 (≈ 0.000351 µM)	0.0015 (≈ 0.00132 µM)	3.1 (≈ 2.72 µM)	> 80	> 80	0.39 (≈ 0.342 µM)	> 80
